Results: ChEMBL document CHEMBL5579889, “Structure-Based Design and Development of Phosphine Oxides as a Novel Chemotype for Antibiotics that Dysregulate Bacterial ClpP Proteases” (J Med Chem, 2024)
Converted amounts (≈) assume the structure as drawn. The source made the active and inactive calls. No cut-off for these calls is given here. Bridge positions count the residues as written; N and C are the ends. Square brackets hold non-standard residues; d marks the D form. Peptide text beside a SMILES is read from it. * marks the point of attachment. Phe(3,5-F2) = N[C@@H](Cc1cc(F)cc(F)c1)C(=O)O; Pro(4R-Me) = C[C@H]1CN[C@H](C(=O)O)C1; aThr = C[C@H](O)[C@H](N)C(=O)O; Pip = O=C(O)[C@@H]1CCCCN1; X1 = CCC/C=C/C=C/C(=O)*

Experiments:
[1] = biological target: T1, ATP-dependent Clp protease proteolytic subunit (Staphylococcus aureus (strain NCTC 8325)) (UniProt Q2G036); assay: Activation of N-terminal His-tagged recombinant Staphylococcus aureus ClpP expressed in Escherichia coli SG1146(DE3) assessed as degradation of casein-FITC at 100 uM preincubated for 10 mins followed by casein addition measured for over 100 mins by fluorescence based assay; details: time > 110.0 min
T1 sequence (whole entry): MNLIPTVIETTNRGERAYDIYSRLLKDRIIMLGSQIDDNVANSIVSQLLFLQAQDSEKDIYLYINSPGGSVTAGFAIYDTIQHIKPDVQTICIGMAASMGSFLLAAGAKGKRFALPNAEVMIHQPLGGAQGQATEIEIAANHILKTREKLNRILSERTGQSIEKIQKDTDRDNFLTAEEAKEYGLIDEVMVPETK

[2] = biological target: ATP-dependent Clp protease proteolytic subunit, mitochondrial (Homo sapiens) (UniProt Q16740); assay: Activation of N-terminal His-tagged recombinant human ClpP expressed in Escherichia coli SG1146(DE3) assessed as degradation of casein-FITC at 100 uM preincubated for 10 mins followed by casein addition measured for over 100 mins by fluorescence based assay; details: time > 110.0 min
Chain of ATP-dependent Clp protease proteolytic subunit, mitochondrial (Homo sapiens) (Q16740 whole entry): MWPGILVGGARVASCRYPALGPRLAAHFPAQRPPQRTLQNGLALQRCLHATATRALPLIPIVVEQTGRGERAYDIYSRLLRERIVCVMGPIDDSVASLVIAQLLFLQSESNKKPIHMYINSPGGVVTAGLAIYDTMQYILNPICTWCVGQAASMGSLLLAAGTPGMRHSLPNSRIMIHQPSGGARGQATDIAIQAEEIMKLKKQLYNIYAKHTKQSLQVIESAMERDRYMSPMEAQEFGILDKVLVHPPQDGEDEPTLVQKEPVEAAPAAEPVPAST

[3] = biological target: ATP-dependent Clp protease proteolytic subunit (Neisseria gonorrhoeae, UniProt Q5F914); assay: Activation of N-terminal His-tagged recombinant Neisseria gonorrhoeae ClpP expressed in Escherichia coli SG1146(DE3) assessed as degradation of casein-FITC preincubated for 10 mins followed by casein addition measured for over 100 mins by fluorescence based assay
Chain of ATP-dependent Clp protease proteolytic subunit (Neisseria gonorrhoeae, UniProt Q5F914) (Q5F914 whole entry): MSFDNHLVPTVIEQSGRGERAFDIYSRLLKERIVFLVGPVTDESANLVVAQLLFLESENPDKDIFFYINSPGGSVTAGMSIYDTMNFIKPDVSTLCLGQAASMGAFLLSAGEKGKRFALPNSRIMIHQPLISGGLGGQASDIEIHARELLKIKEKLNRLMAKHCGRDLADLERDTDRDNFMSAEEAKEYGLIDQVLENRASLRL

Streptococcus pneumoniae = assay: Activation of recombinant Streptococcus pneumoniae ClpP extracted from Escherichia coli SG1146(DE3) assessed as degradation of casein-FITC at 100 uM preincubated for 10 mins followed by casein addition measured for over 100 mins by fluorescence based assay; details: time > 110.0 min
[4] = biological target: ATP-dependent Clp protease proteolytic subunit (Escherichia coli (strain K12), UniProt P0A6G7); assay: Activation of N-terminal His-tagged recombinant Escherichia coli ClpP expressed in Escherichia coli SG1146(DE3) assessed as degradation of casein-FITC preincubated for 10 mins followed by casein addition measured for over 100 mins by fluorescence based assay
Chain of ATP-dependent Clp protease proteolytic subunit (Escherichia coli (strain K12), UniProt P0A6G7) (P0A6G7 whole entry): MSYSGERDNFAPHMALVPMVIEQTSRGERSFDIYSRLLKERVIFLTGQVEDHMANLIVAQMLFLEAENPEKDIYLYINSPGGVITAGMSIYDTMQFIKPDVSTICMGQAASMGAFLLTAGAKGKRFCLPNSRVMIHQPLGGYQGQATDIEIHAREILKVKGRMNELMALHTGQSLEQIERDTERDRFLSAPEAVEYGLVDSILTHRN

Neisseria meningitidis [5] = assay: Antibacterial activity against Neisseria meningitidis NGPB24 measured after 16 to 18 hrs by OD based assay; type: functional; details: time 16-18 hrs
Neisseria meningitidis [6] = assay: Antibacterial activity against Neisseria meningitidis BZ133 measured after 16 to 18 hrs by OD based assay; type: functional; details: time 16-18 hrs
Neisseria meningitidis [7] = assay: Antibacterial activity against Neisseria meningitidis EG329 measured after 16 to 18 hrs by OD based assay; type: functional; details: time 16-18 hrs
Neisseria gonorrhoeae [8] = assay: Antibacterial activity against Neisseria gonorrhoeae WHO Y measured after 16 to 18 hrs by OD based assay; type: functional; details: time 16-18 hrs
Neisseria gonorrhoeae [9] = assay: Antibacterial activity against Neisseria gonorrhoeae WHO P measured after 16 to 18 hrs by OD based assay; type: functional; details: time 16-18 hrs
Neisseria gonorrhoeae [10] = assay: Antibacterial activity against Neisseria gonorrhoeae WHO L measured after 16 to 18 hrs by OD based assay; type: functional; details: time 16-18 hrs
Neisseria gonorrhoeae [11] = assay: Antibacterial activity against Neisseria gonorrhoeae WHO K measured after 16 to 18 hrs by OD based assay; type: functional; details: time 16-18 hrs
Neisseria gonorrhoeae [12] = assay: Antibacterial activity against Neisseria gonorrhoeae FA19 measured after 16 to 18 hrs by OD based assay; type: functional; details: time 16-18 hrs
Neisseria meningitidis [13] = assay: Antibacterial activity against Neisseria meningitidis NGF26 measured after 16 to 18 hrs by OD based assay; type: functional; details: time 16-18 hrs
Neisseria meningitidis [14] = assay: Antibacterial activity against Neisseria meningitidis 88/03415 measured after 16 to 18 hrs by OD based assay; type: functional; details: time 16-18 hrs
Neisseria gonorrhoeae [15] = assay: Antibacterial activity against Neisseria gonorrhoeae WHO X measured after 16 to 18 hrs by OD based assay; type: functional; details: time 16-18 hrs
Neisseria gonorrhoeae [16] = assay: Antibacterial activity against Neisseria gonorrhoeae WHO V measured after 16 to 18 hrs by OD based assay; type: functional; details: time 16-18 hrs
Neisseria gonorrhoeae [17] = assay: Antibacterial activity against Neisseria gonorrhoeae MS11 measured after 16 to 18 hrs by OD based assay; type: functional; details: time 16-18 hrs
Neisseria meningitidis [18] = assay: Antibacterial activity against Neisseria meningitidis NG144/82 measured after 16 to 18 hrs by OD based assay; type: functional; details: time 16-18 hrs
Neisseria meningitidis [19] = assay: Antibacterial activity against Neisseria meningitidis BZ169 measured after 16 to 18 hrs by OD based assay; type: functional; details: time 16-18 hrs
Neisseria gonorrhoeae [20] = assay: Antibacterial activity against Neisseria gonorrhoeae WHO M measured after 16 to 18 hrs by OD based assay; type: functional; details: time 16-18 hrs
Neisseria meningitidis [21] = assay: Antibacterial activity against Neisseria meningitidis H44/76 harboring deltaclpP measured after 16 to 18 hrs by OD based assay; type: functional; details: time 16-18 hrs
Neisseria gonorrhoeae [22] = assay: Antibacterial activity against Neisseria gonorrhoeae WHO N measured after 16 to 18 hrs by OD based assay; type: functional; details: time 16-18 hrs
Neisseria meningitidis [23] = assay: Antibacterial activity against Neisseria meningitidis AK50 measured after 16 to 18 hrs by OD based assay; type: functional; details: time 16-18 hrs
Neisseria gonorrhoeae [24] = assay: Antibacterial activity against Neisseria gonorrhoeae WHO G measured after 16 to 18 hrs by OD based assay; type: functional; details: time 16-18 hrs
Neisseria meningitidis [25] = assay: Antibacterial activity against wild-type Neisseria meningitidis H44/76 measured after 16 to 18 hrs by OD based assay; type: functional; details: time 16-18 hrs
Neisseria meningitidis [26] = assay: Antibacterial activity against Neisseria meningitidis SWZ107 measured after 16 to 18 hrs by OD based assay; type: functional; details: time 16-18 hrs
Neisseria gonorrhoeae [27] = assay: Antibacterial activity against Neisseria gonorrhoeae WHO Z measured after 16 to 18 hrs by OD based assay; type: functional; details: time 16-18 hrs

| Structure (SMILES) | Activity [1] | Activity [2] | EC50 [3] [µM] | Activity (Streptococcus pneumoniae) | EC50 [4] [µM] | MIC (Neisseria meningitidis [5]) [µM] | MIC (Neisseria meningitidis [6]) [µM] | MIC (Neisseria meningitidis [7]) [µM] | MIC (Neisseria gonorrhoeae [8]) [µM] | MIC (Neisseria gonorrhoeae [9]) [µM] | MIC (Neisseria gonorrhoeae [10]) [µM] | MIC (Neisseria gonorrhoeae [11]) [µM] | MIC (Neisseria gonorrhoeae [12]) [µM] | MIC (Neisseria meningitidis [13]) [µM] | MIC (Neisseria meningitidis [14]) [µM] | MIC (Neisseria gonorrhoeae [15]) [µM] | MIC (Neisseria gonorrhoeae [16]) [µM] | MIC (Neisseria gonorrhoeae [17]) [µM] | MIC (Neisseria meningitidis [18]) [µM] | MIC (Neisseria meningitidis [19]) [µM] | further results |
| --- | --- | --- | --- | --- | --- | --- | --- | --- | --- | --- | --- | --- | --- | --- | --- | --- | --- | --- | --- | --- | --- |
| O=C(CP(=O)(c1ccc(C(F)(F)F)cn1)c1ccc(C(F)(F)F)cn1)NCCSc1ccccc1C(F)(F)F | inactive | inactive | 4.9 | inactive | 1.79 | – | – | – | – | – | – | – | – | – | – | – | – | – | – | – | – |
| CC(C)(C(=O)NCCSc1ccccc1C(F)(F)F)P(=O)(c1ccccn1)c1ccccn1 | inactive | inactive | 5.1 | inactive | 2.3 | – | – | – | – | – | – | – | – | – | – | – | – | – | – | – | – |
| CC(C(=O)NCCSc1ccccc1Cl)P(=O)(c1ccccc1)c1ccccc1 (stereo not drawn) | – | – | – | – | – | 3.1 (≈ 1.38 µg/mL) | 2.4 (≈ 1.07 µg/mL) | 1.7 (≈ 0.755 µg/mL) | 12.5 (≈ 5.55 µg/mL) | 3.1 (≈ 1.38 µg/mL) | 3.1 (≈ 1.38 µg/mL) | 1.6 (≈ 0.71 µg/mL) | 3.1 (≈ 1.38 µg/mL) | 1.6 (≈ 0.71 µg/mL) | 1.6 (≈ 0.71 µg/mL) | 4.7 (≈ 2.09 µg/mL) | 3.1 (≈ 1.38 µg/mL) | 3.1 (≈ 1.38 µg/mL) | 0.3 (≈ 0.133 µg/mL) | 1 (≈ 0.444 µg/mL) | MIC (Neisseria gonorrhoeae [20]): 1.6 µM (≈ 0.71 µg/mL); MIC (Neisseria meningitidis [21]): > 25 µM; MIC (Neisseria gonorrhoeae [22]): 1.6 µM (≈ 0.71 µg/mL); MIC (Neisseria meningitidis [23]): 4.7 µM (≈ 2.09 µg/mL); MIC (Neisseria gonorrhoeae [24]): 1.6 µM (≈ 0.71 µg/mL); MIC (Neisseria meningitidis [25]): 1 µM (≈ 0.444 µg/mL); MIC (Neisseria meningitidis [26]): 0.3 µM (≈ 0.133 µg/mL); MIC (Neisseria gonorrhoeae [27]): 1.6 µM (≈ 0.71 µg/mL) |
| CCC/C=C/C=C/C(=O)N[C@@H](Cc1cc(F)cc(F)c1)C(=O)N[C@@H]1C(=O)N2CCC[C@H]2C(=O)N2CCCC[C@H]2C(=O)N[C@@H](C)C(=O)N2C[C@H](C)C[C@H]2C(=O)O[C@H]1C (X1-[Phe(3,5-F2)][aThr]P[Pip]A[Pro(4R-Me)]; ester 2-C) | – | – | 0.23 | – | 4.69 | 0.3 (≈ 0.239 µg/mL) | 0.3 (≈ 0.239 µg/mL) | < 0.3 | 0.3 (≈ 0.239 µg/mL) | 4.7 (≈ 3.75 µg/mL) | 0.3 (≈ 0.239 µg/mL) | 0.3 (≈ 0.239 µg/mL) | 1.6 (≈ 1.28 µg/mL) | 2.4 (≈ 1.91 µg/mL) | 0.3 (≈ 0.239 µg/mL) | 0.3 (≈ 0.239 µg/mL) | 3.1 (≈ 2.47 µg/mL) | 0.3 (≈ 0.239 µg/mL) | 0.3 (≈ 0.239 µg/mL) | 0.3 (≈ 0.239 µg/mL) | MIC (Neisseria gonorrhoeae [20]): 0.3 µM (≈ 0.239 µg/mL); MIC (Neisseria meningitidis [21]): > 25 µM; MIC (Neisseria gonorrhoeae [22]): 0.3 µM (≈ 0.239 µg/mL); MIC (Neisseria meningitidis [23]): 1.6 µM (≈ 1.28 µg/mL); MIC (Neisseria gonorrhoeae [24]): 0.3 µM (≈ 0.239 µg/mL); MIC (Neisseria meningitidis [25]): < 0.3 µM; MIC (Neisseria meningitidis [26]): < 0.3 µM; MIC (Neisseria gonorrhoeae [27]): 0.3 µM (≈ 0.239 µg/mL) |
| CC(C(=O)NCCSc1ccccc1C(F)(F)F)P(=O)(c1ccccn1)c1ccccn1 (stereo not drawn) | inactive | inactive | – | inactive | – | – | – | – | – | – | – | – | – | – | – | – | – | – | – | – | – |
| CCCC/C=C/C(=O)N[C@@H](Cc1ccccc1)C(=O)N[C@H]1COC(=O)[C@@H]2CCCN2C(=O)[C@H](C)NC(=O)[C@@H]2CCCCN2C(=O)[C@@H]2CCCN2C1=O | inactive | – | – | inactive | – | – | – | – | – | – | – | – | – | – | – | – | – | – | – | – | – |
